pKd: −log10 of the molar value. Where two headings read alike, the source gives them in different places.
How the values were obtained:
Axl = biological target: T1, Axl (Homo sapiens, UniProt P30530); experiment: LanthaScreen Eu kinase binding assay for Axl; conditions: read-out: Axl kinase binding activity (Kd)
T1 sequence (P30530 26-894): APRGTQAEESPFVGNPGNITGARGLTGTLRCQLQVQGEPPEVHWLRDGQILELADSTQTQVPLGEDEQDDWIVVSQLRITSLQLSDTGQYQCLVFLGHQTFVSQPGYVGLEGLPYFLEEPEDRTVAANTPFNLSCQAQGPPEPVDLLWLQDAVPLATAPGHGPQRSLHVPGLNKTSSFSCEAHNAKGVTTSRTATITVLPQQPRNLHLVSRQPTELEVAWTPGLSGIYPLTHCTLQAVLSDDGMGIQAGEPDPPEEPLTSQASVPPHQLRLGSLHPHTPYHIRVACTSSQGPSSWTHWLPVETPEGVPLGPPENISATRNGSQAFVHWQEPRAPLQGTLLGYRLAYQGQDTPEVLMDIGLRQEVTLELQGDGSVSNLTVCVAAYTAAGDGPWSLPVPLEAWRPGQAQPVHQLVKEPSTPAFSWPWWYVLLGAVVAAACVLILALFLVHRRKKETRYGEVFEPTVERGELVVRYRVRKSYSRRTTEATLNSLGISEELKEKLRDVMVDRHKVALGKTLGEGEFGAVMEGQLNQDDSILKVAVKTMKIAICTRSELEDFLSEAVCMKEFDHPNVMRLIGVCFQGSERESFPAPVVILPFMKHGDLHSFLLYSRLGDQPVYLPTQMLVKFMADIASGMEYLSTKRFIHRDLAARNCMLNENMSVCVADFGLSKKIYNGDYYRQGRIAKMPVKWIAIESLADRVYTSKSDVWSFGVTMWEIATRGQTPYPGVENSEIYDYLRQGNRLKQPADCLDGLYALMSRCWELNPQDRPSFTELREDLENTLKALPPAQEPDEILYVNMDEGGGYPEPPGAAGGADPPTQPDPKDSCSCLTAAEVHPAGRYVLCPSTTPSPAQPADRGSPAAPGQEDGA
In short: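 Competitive displacement of Alexa Fluor 647-labeled Tracer 236 from the kinase, with binding detected by TR-FRET with a Eu-labeled anti-GST antibody. Compounds were run as 8-step DMSO serial dilutions and incubated 1 h at room temperature. Kd was calculated relative to DMSO vehicle control wells.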

CSF1R = CSF1R (Homo sapiens, UniProt P07333); experiment: KINOMEscan competition binding assay for CSF1R; design: DNA tag for qPCR (not a peptide); host or cells: E. coli/T7 phage or HEK-293; conditions: for pKd: read-out: CSF1R kinase binding activity (Kd)
Sequence of CSF1R (P07333 20-972): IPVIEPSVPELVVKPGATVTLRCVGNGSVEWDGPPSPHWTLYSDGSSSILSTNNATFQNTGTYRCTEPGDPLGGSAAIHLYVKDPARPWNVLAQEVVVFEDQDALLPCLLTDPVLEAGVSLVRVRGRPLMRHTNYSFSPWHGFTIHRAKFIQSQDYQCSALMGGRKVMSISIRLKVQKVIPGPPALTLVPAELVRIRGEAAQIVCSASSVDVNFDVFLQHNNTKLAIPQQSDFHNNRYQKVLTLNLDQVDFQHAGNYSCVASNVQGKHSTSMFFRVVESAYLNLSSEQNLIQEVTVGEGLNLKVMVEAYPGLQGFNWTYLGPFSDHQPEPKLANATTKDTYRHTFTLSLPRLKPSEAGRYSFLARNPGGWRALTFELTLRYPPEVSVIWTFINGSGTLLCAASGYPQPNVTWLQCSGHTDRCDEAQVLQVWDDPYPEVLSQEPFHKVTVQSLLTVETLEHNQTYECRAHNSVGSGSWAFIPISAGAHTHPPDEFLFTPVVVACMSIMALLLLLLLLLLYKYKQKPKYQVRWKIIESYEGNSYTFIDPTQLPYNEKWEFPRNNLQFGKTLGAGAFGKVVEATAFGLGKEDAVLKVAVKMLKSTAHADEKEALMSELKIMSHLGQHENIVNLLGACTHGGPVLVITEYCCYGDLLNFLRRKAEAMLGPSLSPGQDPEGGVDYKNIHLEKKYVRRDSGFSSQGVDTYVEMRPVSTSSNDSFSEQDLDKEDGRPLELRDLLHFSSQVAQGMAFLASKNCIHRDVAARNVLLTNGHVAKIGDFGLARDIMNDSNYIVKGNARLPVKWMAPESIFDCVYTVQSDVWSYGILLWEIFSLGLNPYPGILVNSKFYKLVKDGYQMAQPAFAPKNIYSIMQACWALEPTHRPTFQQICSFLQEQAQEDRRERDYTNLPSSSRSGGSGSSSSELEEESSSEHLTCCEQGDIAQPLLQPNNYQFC
In short: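 Values are either % inhibition at 0.1 uM, relative to DMSO (100% Ctrl) and a control compound (0% Ctrl), or Kd from an 11-point 3-fold series fitted with Hill slope −1. DNA-tagged kinase binds immobilized ligand beads with compound for 1 h at room temperature, and eluted kinase is measured by qPCR.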

[1] = read-out: CSF1R kinase binding activity, Percent (%) inhibition
[2] = read-out: CSF1R kinase binding activity, Range

SMILES | pKd (Axl) | inhibition at 0.1 µM (CSF1R; [1]) | inhibition at 0.1 µM (CSF1R; [2]) | pKd (CSF1R)
CCCn1cc(OCC(F)(F)F)c(C(=O)Nc2ccc(Oc3ccnc4cc(OC)c(OC)cc34)nn2)n1 [Compound 32] | > 7.00 | 95% | ≥ 80% | 
COc1cc2nccc(Oc3ccc(NC(=O)c4nn(C5CCCC5)cc4OCC(F)(F)F)nc3)c2cc1OC [Compound 40] | > 7.00 | 94% | ≥ 80% | 
COc1cc2nccc(Oc3ccc(NC(=O)c4nn(C5CCCC5)cc4OCC(F)(F)F)cc3C)c2cc1OC [Compound 57] | > 7.00 | 97% | ≥ 80% | 
COc1cc2nccc(Oc3ccc(NC(=O)c4nn(CC5CCCCC5)cc4OCC(F)(F)F)nc3)c2cc1OC [Compound 43] | > 7.00 | 94% | ≥ 80% | 
COc1cc2nccc(Oc3ccc(NC(=O)c4nn(C(C)(C)C)cc4OCC(F)(F)F)nc3)c2cc1OC [Compound 22] | > 7.00 | 93% | ≥ 80% | 
COc1cc2nccc(Oc3ccc(NC(=O)c4nn(C5CC5)c(C(C)=O)c4OCC(F)(F)F)nc3)c2cc1OC [Compound 3] | > 7.00 | 71% | 50 to 80% | 6.30 to 7.00
CCCn1cc(OCCF)c(C(=O)Nc2ccc(Oc3ccnc4cc(OC)c(OC)cc34)cn2)n1 [Compound 14] | > 7.00 | 98% | ≥ 80% | > 7.00
COc1cc2nccc(Oc3ccc(NC(=O)c4nn(CC(C)(F)F)cc4OCC(F)(F)F)nc3)c2cc1OC [Compound 64] | > 7.00 | 95% | ≥ 80% | 
COc1cc2nccc(Oc3ccc(NC(=O)c4nn(CC5CCC5)cc4OCC(F)(F)F)nc3)c2cc1OC [Compound 42] | > 7.00 | 95% | ≥ 80% | 
COc1cc2nccc(Oc3ccc(NC(=O)c4nn(CCO)cc4OCC(F)(F)F)c(F)c3)c2cc1OC [Compound 46] | > 7.00 | 96% | ≥ 80% | 
COc1cc2nccc(Oc3ccc(NC(=O)c4nn(C[C@H](C)O)cc4OCC(F)(F)F)nc3)c2cc1OC [Compound 30] | > 7.00 | 99% | ≥ 80% | 
COc1cc2nccc(Oc3ccc(NC(=O)c4nn(C5CCCCC5)cc4OCC(F)(F)F)nc3)c2cc1OC [Compound 69] | > 7.00 | 89% | ≥ 80% | 
COc1cc2nccc(Oc3ccc(NC(=O)c4nn(CCO)cc4OCC(F)(F)F)cc3F)c2cc1OC [Compound 51] | > 7.00 | 82% | ≥ 80% | 
CCCn1cc(OCC(F)(F)F)c(C(=O)Nc2ccc(Oc3ccnc4cc(OC)c(OC)cc34)cc2F)n1 [Compound 28] | > 7.00 | 90% | ≥ 80% | 
COc1cc2nccc(Oc3ccc(NC(=O)c4nn(C)cc4OCC(F)(F)F)c(F)c3)c2cc1OC [Compound 45] | > 7.00 | 93% | ≥ 80% | 
COc1cc2nccc(Oc3ccc(NC(=O)c4nn(CC(C)C)cc4OCC(F)(F)F)c(F)c3)c2cc1OC [Compound 48] | > 7.00 | 82% | ≥ 80% | 
CCCn1cc(NCC(F)(F)F)c(C(=O)Nc2ccc(Oc3ccnc4cc(OC)c(OC)cc34)cn2)n1 [Compound 23] | > 7.00 | 94% | ≥ 80% | 
CCCn1cc(N(C)CC2CCOCC2)c(C(=O)Nc2ccc(Oc3ccnc4cc(OC)c(OC)cc34)cn2)n1 [Compound 34] | ≤ 6.30 |  |  | 
COc1cc2nccc(Oc3ccc(NC(=O)c4cc(C5CC5)cnc4OCC(F)(F)F)nc3)c2cc1OC [Compound 178] | > 7.00 |  |  | 
CCCn1cc(OCCN(C)C)c(C(=O)Nc2ccc(Oc3ccnc4cc(OC)c(OC)cc34)cn2)n1 [Compound 177] | > 7.00 |  |  | 
COc1cc2nccc(Oc3ccc(NC(=O)c4sc(C5CC5)cc4OCC(F)(F)F)nc3)c2cc1OC [Compound 179] | 6.30 to 7.00 |  |  | 

From patent US12162858B2, “Quinoline derivatives as inhibitors of AXL/MER RTK and CSF1R” (QURIENT CO., LTD., priority 2018, dated 2024)
